Patent US20170305922A1, “CARM1 INHIBITORS AND USES THEREOF” (Epizyme, Inc., priority 2014, published 2017)

Test system: asymmetric di-methyl PABP1 in RKO cells
Assay: RKO methylation assay: In Cell Western (ICW) for asymmetric di-methyl PABP1 (PABP1me2a)
Conditions: Homo sapiens, RKO, 48 h, Cellular-based (PABP1me2a) ICW (In Cell Western) assay
How it was run: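 In-cell western on compound-exposed RKO cells (48 hours): asymmetric di-methyl PABP1 detected by antibody at 800 nm, DNA content by DRAQ5 at 700 nm. Percent inhibition from signal ratios against DMSO (minimum) and 20 μM reference compound (maximum) wells; IC50 curves fitted from triplicates.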

SMILES | IC50 [µM]
CNC[C@@H](O)COc1ccc(Cl)c(-c2nc(-c3c(Cl)cnn3C)c(C)c(N3Cc4cncnc4C3)n2)c1 [Example 344] | 0.713
CNC[C@@H](O)COc1ccc(Cl)c(-c2nc(-c3c(C)c(C#N)nn3C)c(C)c(N3CC4(CCN(C(=O)OC)CC4)C3)n2)c1 [Example 345] | 0.262
CNC[C@@H](O)COc1ccc(Cl)c(-c2nc(-c3c(C)c(C#N)nn3C)c(C)c(N3Cc4cncnc4C3)n2)c1 [Example 346] | 0.14
CNC[C@@H](O)COc1cccc(-c2nc(-c3c(C)noc3C)c(C)c(N3CC4(CCN(C(=O)OC)CC4)C3)n2)c1Cl [Example 350] | 7.2

Results, then the compound that gave them:

IC50 [µM] | SMILES
> 2 | CNC[C@@H](O)COc1cccc(-c2nc(-c3c(C#N)cnn3C)c(C)c(N3Cc4cccnc4C3)n2)c1 [Example 347]
1.67 | CNC[C@@H](O)COc1ccc(Cl)c(-c2nc(-c3c(C#N)cnn3C)c(C)c(N3Cc4cccnc4C3)n2)c1 [Example 348]
3.11 | CNC[C@@H](O)COc1ccc(Cl)c(-c2nc(-c3c(C#N)cnn3C)c(C)c(N3Cc4cncnc4C3)n2)c1 [Example 349]

Target: T1, Human CARM1 (PRMT4) (Homo sapiens, UniProt Q86X55)
T1 construct: Flag-CARM1-His was eluted with 200 ug/ml FLAG peptide in buffer A; made in house; host or cells: HEK 293F cells infected with recombinant baculovirus (pFastBacMam)
T1 sequence (Q86X55 1-585 isoform Q86X55-1): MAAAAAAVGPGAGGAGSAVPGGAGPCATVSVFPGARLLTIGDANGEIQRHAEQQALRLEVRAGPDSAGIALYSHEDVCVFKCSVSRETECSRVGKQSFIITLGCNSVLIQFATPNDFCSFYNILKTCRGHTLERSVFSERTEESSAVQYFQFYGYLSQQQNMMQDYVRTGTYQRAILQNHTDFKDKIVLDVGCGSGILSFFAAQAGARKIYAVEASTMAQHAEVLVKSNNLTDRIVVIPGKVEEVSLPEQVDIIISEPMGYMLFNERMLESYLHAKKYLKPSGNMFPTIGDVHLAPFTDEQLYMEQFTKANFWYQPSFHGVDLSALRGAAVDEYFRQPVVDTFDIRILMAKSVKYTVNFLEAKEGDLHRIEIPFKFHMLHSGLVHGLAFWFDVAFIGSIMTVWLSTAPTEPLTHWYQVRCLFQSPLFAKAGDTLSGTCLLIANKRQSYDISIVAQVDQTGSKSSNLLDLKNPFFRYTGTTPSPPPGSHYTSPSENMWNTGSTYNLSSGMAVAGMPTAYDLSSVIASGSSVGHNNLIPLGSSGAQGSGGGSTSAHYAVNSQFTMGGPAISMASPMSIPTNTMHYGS
Assay: CARM1 enzyme assay on peptide substrates (3H-SAM Flashplate)
Conditions: Biochemical assay; CARM1 0.25 nM, 3H-SAM 30 nM, peptide 250 nM; read-out: Biochem IC50

SMILES | IC50 [µM]
CNC[C@@H](O)COc1ccc(Cl)c(-c2nc(-c3c(Cl)cnn3C)c(C)c(N3Cc4cncnc4C3)n2)c1 [Example 344] | 0.0129
CNC[C@@H](O)COc1ccc(Cl)c(-c2nc(-c3c(C)c(C#N)nn3C)c(C)c(N3CC4(CCN(C(=O)OC)CC4)C3)n2)c1 [Example 345] | 0.00566
CNC[C@@H](O)COc1ccc(Cl)c(-c2nc(-c3c(C)c(C#N)nn3C)c(C)c(N3Cc4cncnc4C3)n2)c1 [Example 346] | 0.00231
CNC[C@@H](O)COc1cccc(-c2nc(-c3c(C)noc3C)c(C)c(N3CC4(CCN(C(=O)OC)CC4)C3)n2)c1Cl [Example 350] | 0.0372

Next, values leading:

IC50 [µM] | SMILES
0.0282 | CNC[C@@H](O)COc1cccc(-c2nc(-c3c(C#N)cnn3C)c(C)c(N3Cc4cccnc4C3)n2)c1 [Example 347]
0.00567 | CNC[C@@H](O)COc1ccc(Cl)c(-c2nc(-c3c(C#N)cnn3C)c(C)c(N3Cc4cccnc4C3)n2)c1 [Example 348]
0.00781 | CNC[C@@H](O)COc1ccc(Cl)c(-c2nc(-c3c(C#N)cnn3C)c(C)c(N3Cc4cncnc4C3)n2)c1 [Example 349]
